# Data: paper PMC5881522, “Molecular Defects in Cardiac Myofilament Ca^2+-Regulation Due to Cardiomyopathy-Linked Mutations Can Be Reversed by Small Molecules Binding to Troponin” (Frontiers in Physiology, 2018)
# Entries after “also recorded” stand apart in the source; their conditions may differ.
# Columns and labels:
# [1] = tested on: mutant-containing thin filaments; test: IVMA Ca2+-activation curves, collected uncoupled mutant thin filaments; assay type: biochemical; conditions: every uncoupling mutation tested; 100 μM EGCG
# Experimental: Thin filaments were reconstituted with 10 nM rabbit skeletal or mouse cardiac muscle α-actin (labeled with TRITC phalloidin), tropomyosin (40–60 nM), and troponin (60 nM) to study Ca^2+-regulation of filament motility by the quantitative in vitro motility assay (IVMA) (Fraser and Marston, [1995]; Messer et al., [2007]). Thin filament movement over a bed of immobilized rabbit fast skeletal muscle heavy meromyosin (100 μg/ml) was compared in paired motility cells, in which troponin varied by a single factor (mutation, phosphorylation state, or treatment with drug). The temperature was set to 29°C. Filament movement was recorded and analyzed as previously described (Marston et al., [1996]), yielding two parameters, the fraction of filaments moving and the speed of moving filaments. […]
# (§1) The fraction motile was measured over a range of Ca^2+ concentrations to generate Ca^2+-activation curves. […]
# We measured the Ca^2+ activation of contractility using an in vitro motility assay that measures the movement of reconstituted thin filaments over a bed of immobilized myosin heads. […] Thus, the effect of EGCG is independent of the mutation that induced uncoupling; in addition, both in man and cat, HCM cases were found where no mutation in sarcomeric genes was detected yet the thin filaments were uncoupled and they could also be re-coupled by EGCG (Bayliss et al., [2012]; Messer et al., [2016]). […]
# [2] = molecular target: T1, tropomyosin E180G mutant-containing thin filaments (Homo sapiens, UniProt P19429+P45379+P63316); test: Single [Ca2+] in vitro motility assay screen for re-coupling; assay type: biochemical; conditions: for Coupling Difference (Initial Screen E180G): 100 μM compound, 0.037 μM Ca2+, difference between motility (%) in phosphorylated and unphosphorylated thin filaments, TPM1 E180G, >10% = re-coupling; for EC50: dose-response of % motility difference at 0.037 μM Ca2+, Hill fit
# T1 construct: isolate troponin from 100 mg of donor heart tissue; from tissue; host or cells: troponin: human donor heart; tropomyosin: baculovirus/Sf9 (gift); actin: rabbit fast-twitch skeletal muscle
# Experimental: (§2) Thin filaments were reconstituted with 10 nM rabbit skeletal or mouse cardiac muscle α-actin (labeled with TRITC phalloidin), tropomyosin (40–60 nM), and troponin (60 nM) to study Ca^2+-regulation of filament motility by the quantitative in vitro motility assay (IVMA) (Fraser and Marston, [1995]; Messer et al., [2007]). Thin filament movement over a bed of immobilized rabbit fast skeletal muscle heavy meromyosin (100 μg/ml) was compared in paired motility cells, in which troponin varied by a single factor (mutation, phosphorylation state, or treatment with drug). The temperature was set to 29°C. Filament movement was recorded and analyzed as previously described (Marston et al., [1996]), yielding two parameters, the fraction of filaments moving and the speed of moving filaments. Only the fraction of filaments motile is used in this study.
# For drug screening, motility was measured with paired phosphorylated and unphosphorylated tropomyosin E180G mutant-containing thin filaments at a fixed 0.037 μM Ca^2+. Most assays were single measurements.
# For the rapid screening of compounds, we devised a single Ca^2+ concentration assay. This is illustrated in Figures 2A,B for quercetin. The test system contains skeletal muscle actin, human sequence recombinant tropomyosin 1.1 containing the E180G HCM-associated mutation and human cardiac troponin from donor hearts in the phosphorylated and unphosphorylated form. At 0.037 μM Ca^2+ the filaments are about 40% motile irrespective of phosphorylation level whilst when quercetin is added the phosphorylated Ca^2+ activity curve shifts to the right and % motility at 0.037 μM Ca^2+ drops, whilst the unphosphorylated level is unchanged. We have set a difference between phosphorylated and unphosphorylated >10% as indicating re-coupling activity. This assay method can also be used to construct a dose-response curve as shown. We investigated compounds in 4 categories.
# Figure 2 Single [Ca^2+] screen for re-coupling compounds. […] Solid lines, phosphorylated state; dotted lines, unphosphorylated state. Purple lines and points, E180G thin filaments; green lines and points, E180G thin filaments + Quercetin (B) Dose -response curve for quercetin recoupling activity measured at a constant concentration of 0.037 μM Ca^2+. INSET, kinetic analysis of dose response curve; difference between phosphorylated and unphosphorylated states is plotted against quercetin concentration. The Hill equation is fitted to the data, EC50 = 8 μM. (C,D) The effect of 100 μM drug treatment on the difference between % of motility of phosphorylated and unphosphorylated tropomyosin E180G mutant-containing thin filaments at 0.037 μM Ca^2+. (C) EGCG-related molecules (for structures 1–28 see Figure S1 and Table 1). (D) Silybin, related compounds and other HsP90 inhibitors and Ca^2+ desensitizers. The threshold for positive re-coupling was set at a 10% difference (dotted line).
# [3] = tested on: transgenic HCM mouse model; set-up: method as in Tadano et al., 2010; conditions: ref Tadano et al., 2010; cited from earlier work
# [4] = tested on: isolated cardiomyocytes from ACTC E99K HCM transgenic mice; test: Lusitropic effect of dobutamine in isolated cardiomyocytes; assay type: cell-based; conditions: blunted in ACTC E99K mouse cardiomyocytes; preliminary experiments
# Excerpt: The main effect of uncoupling of the modulation of Ca^2+ sensitivity by TnI phosphorylation is the loss of the lusitropic response to beta adrenergic stimulation, which is usually accompanied by blunting of the whole physiological adrenergic response.
# wild-type thin filaments = molecular target: T2, wild-type thin filaments (Homo sapiens, UniProt P19429+P45379+P63316); test: IVMA Ca2+-activation curves, wild-type thin filaments; assay type: biochemical; conditions: ratio of EC50 in presence and absence of compound, phosphorylated and unphosphorylated states
# T2 construct: isolate troponin from 100 mg of donor heart tissue; from tissue; host or cells: troponin: human donor heart; actin: rabbit skeletal muscle
# Experimental: as §2
# The fraction motile was measured over a range of Ca^2+ concentrations to generate Ca^2+-activation curves. The data were fitted to the 4-variable Hill equation to yield a value for EC50 and nH. Most assays of the effect of compounds are single measurements.
# EC50 for Ca2+ activation of phosphorylated and unphosphorylated thin filaments incorporating troponin from HCM and DCM tissue samples that are uncoupled was measured by in vitro motility assay in the presence and absence of 100 µM EGCG. […]
# [5] = molecular target: T3, thin filaments containing TnC G159D (TNNC1 G159D, DCM) (Homo sapiens, UniProt P19429+P45379+P63316, G159D); test: IVMA Ca2+-activation curves, TNNC1 G159D; assay type: biochemical; conditions: phosphorylated and unphosphorylated TnC G159D thin filaments
# T3 construct: TnC G159D mutant troponin was extracted from a mutant human heart sample; from tissue; host or cells: mutant human heart sample (troponin); rabbit skeletal muscle (actin)
# Excerpt: Recombinant human sequence tropomyosin was a gift from Kristen Nowak and Elyshia MacNamara, University, Western Australia. Wild-type α-tropomyosin (Tpm1.1) and mutant E180G tropomyosin were expressed in a baculovirus/Sf9 system (Akkari et al., [2002]; Marston et al., [2013]). Skeletal muscle F-actin and myosin were isolated from rabbit fast-twitch skeletal muscle as previously described (Messer et al., [2007]). TnC G159D mutant troponin was extracted from a mutant human heart sample (Dyer et al., [2009]), E99K mutant cardiac actin was extracted from the E99K transgenic mouse heart (Song et al., [2013]).
# Thin filaments were reconstituted with 10 nM rabbit skeletal or mouse cardiac muscle α-actin (labeled with TRITC phalloidin), tropomyosin (40–60 nM), and troponin (60 nM) to study Ca^2+-regulation of filament motility by the quantitative in vitro motility assay (IVMA) (Fraser and Marston, [1995]; Messer et al., [2007]). […] Filament movement was recorded and analyzed as previously described (Marston et al., [1996]), yielding two parameters, the fraction of filaments moving and the speed of moving filaments. […]
# as §1
# [6] = dose response of motile percentage, Figure S2B
"dose at which recoupling begins [2, 6] [µM]","dose of peak recoupling [2, 6] [µM]",Compound,"restoration of coupling in uncoupled thin filaments, in words [1]",Coupling Difference (Initial Screen E180G) [2] [%],EC50 [2] [µM],"impaired pump function due to diastolic dysfunction, in words [3]","lusitropic effect of dobutamine, in words [4]","effect on Ca2+-sensitivity of wild-type thin filaments, in words (wild-type thin filaments)","effect on Ca2+-activation curves (desensitizer / re-coupler), in words [5]"
,,"O=C(O[C@@H]1Cc2c(O)cc(O)cc2O[C@@H]1c1cc(O)c(O)c(O)c1)c1cc(O)c(O)c(O)c1 [EGCG, epigallocatechin-3 gallate]",restore the coupling,23.0,59,restored the impaired pump function,anomalous,significant desensitizer,
50,100,COc1cc([C@@H]2Oc3cc([C@H]4Oc5cc(O)cc(O)c5C(=O)[C@@H]4O)ccc3O[C@H]2CO)ccc1O [Silybin B],,55,39,,restored,,pure recoupler; also recorded: pure recoupling
